Activity calls are given as the source filed them. No cut-off for these calls is given here.
Key:
[1] = biological target: Mu-type opioid receptor (Rattus norvegicus, UniProt P33535); assay: Displacement of [3H]-DAMGO from Wistar rat mu opioid receptor incubated for 1 hr by liquid scintillation counting method
[2] = biological target: Delta-type opioid receptor (Rattus norvegicus, UniProt P33533); assay: Displacement of [3H]-DPDPE from Wistar rat delta opioid receptor incubated for 3 hrs by liquid scintillation counting method
[3] = biological target: T1, Mu-type opioid receptor (Homo sapiens, UniProt P35372); assay: Agonist activity at mu opioid receptor (unknown origin) expressed in human HEK293 cells assessed as […] in cAMP accumulation using [3H]-cAMP as substrate measured after 30mins by liquid scintillation counting method; assay type: functional, cell-based
[4] = biological target: T1, Mu-type opioid receptor; assay: Agonist activity at mu opioid receptor (unknown origin) expressed in human HEK293 cells assessed as […] in cAMP accumulation using [3H]-cAMP as substrate measured after 30mins by liquid scintillation counting method relative to control; assay type: functional, cell-based
[5] = Half life in Kunming mouse brain homogenate at 10^-2 mol/L by RP-HPLC analysis; assay type: ADME, tissue-based
[6] = Half life in Kunming mouse serum at 10^-2 mol/L by RP-HPLC analysis; assay type: ADME, cell-free
[7] = test system: Mus musculus; assay: Antinociceptive activity in kunming mouse models assessed as maximum possible effect at 0.4 nmol, icv measured from 5 to 60 mins by warm water tail-flick assay relative to control; assay type: functional
[8] = test system: Mus musculus; assay: Antinociceptive activity in kunming mouse models assessed as effective dose after icv administration measured from 5 to 60 mins by warm water tail-flick assay; assay type: functional
[9] = test system: Mus musculus; assay: Antinociceptive activity in kunming mouse models assessed as maximum possible effect at 4 nmol, icv measured from 5 to 60 mins by warm water tail-flick assay relative to control; assay type: functional
[10] = test system: Mus musculus; assay: Antinociceptive activity in kunming mouse models of formalin-induced hyperalgesia assessed as reduction in pain response of paw licking inflammatory phase at 0.04 nmol, icv measured during phase 1 at 0 to 5 mins relative to control; assay type: functional; design: scale not given: the % may be the effect or the level left
[11] = test system: Mus musculus; assay: Antinociceptive activity in icv administered kunming mouse models of formalin-induced hyperalgesia assessed reduction in pain response of paw licking during inflammatory phase 2 at 15 to 30 mins; assay type: functional, organism-based
[12] = test system: Mus musculus; assay: Antinociceptive activity in icv administered kunming mouse models of formalin-induced hyperalgesia assessed reduction in time spent on paw biting during inflammatory phase 2 at 15 to 30 mins; assay type: functional; design: scale not given: the % may be the effect or the level left
[13] = test system: Mus musculus; assay: Antinociceptive activity in kunming mouse models of formalin-induced hyperalgesia assessed as reduction in time spent on paw biting inflammatory phase at 0.04 nmol, icv measured during phase 1 at 0 to 5 mins relative to control; assay type: functional; design: scale not given: the % may be the effect or the level left
[14] = test system: Mus musculus; assay: Antinociceptive activity in kunming mouse models of formalin-induced hyperalgesia assessed as reduction in time spent on paw shaking inflammatory phase at 0.04 nmol, icv measured during phase 1 at 0 to 5 mins relative to control; assay type: functional; design: scale not given: the % may be the effect or the level left
[15] = test system: Mus musculus; assay: Antinociceptive activity in icv administered kunming mouse models of formalin-induced hyperalgesia assessed reduction in time spent on paw shaking during inflammatory phase 2 at 15 to 30 mins; assay type: functional; design: scale not given: the % may be the effect or the level left
[16] = test system: Mus musculus; assay: Antinociceptive activity in kunming mouse models of formalin-induced hyperalgesia assessed as reduction in pain response of paw licking inflammatory phase at 4 nmol, icv measured during phase 2 at 15 to 30 mins relative to control; assay type: functional; design: scale not given: the % may be the effect or the level left
[17] = test system: Mus musculus; assay: Antinociceptive activity in kunming mouse models of formalin-induced hyperalgesia assessed as reduction in time spent on paw biting inflammatory phase at 4 nmol, icv measured during phase 2 at 15 to 30 mins relative to control; assay type: functional; design: scale not given: the % may be the effect or the level left
[18] = test system: Mus musculus; assay: Antinociceptive activity in kunming mouse models of formalin-induced hyperalgesia assessed as reduction in time spent on paw shaking inflammatory phase at 4 nmol, icv measured during phase 2 at 15 to 30 mins relative to control; assay type: functional; design: scale not given: the % may be the effect or the level left
[19] = test system: Mus musculus; assay: Antinociceptive activity in kunming mouse models of formalin-induced hyperalgesia assessed as reduction in pain response of paw licking inflammatory phase at 4 nmol, icv measured during phase 1 at 0 to 5 mins relative to control; assay type: functional; design: scale not given: the % may be the effect or the level left
[20] = test system: Mus musculus; assay: Antinociceptive activity in kunming mouse models of formalin-induced hyperalgesia assessed as reduction in time spent on paw biting inflammatory phase at 4 nmol, icv measured during phase 1 at 0 to 5 mins relative to control; assay type: functional; design: scale not given: the % may be the effect or the level left
[21] = test system: Mus musculus; assay: Antinociceptive activity in kunming mouse models of formalin-induced hyperalgesia assessed as reduction in time spent on paw shaking inflammatory phase at 4 nmol, icv measured during phase 1 at 0 to 5 mins relative to control; assay type: functional; design: scale not given: the % may be the effect or the level left
[22] = test system: Mus musculus; assay: Antinociceptive activity in kunming mouse models of acetic-acid-induced writhing assessed as inhibition of writhing numbers at 0.04 nmol, icv pretreated for 5 mins followed by acetic-acid treatment and measured for 20 mins relative to control; assay type: functional; design: scale not given: the % may be the effect or the level left
[23] = test system: Mus musculus; assay: Antinociceptive activity in kunming mouse models assessed as effective dose after iv administration by warm water tail-flick assay; assay type: functional
[24] = test system: Mus musculus; assay: Antinociceptive activity in kunming mouse models assessed as maximum possible effect at 3 mg/kg, iv measured after 5 to 60 mins by warm water tail-flick assay; assay type: functional
[25] = Neurotoxicity in kunming mouse models assessed as effect in locomotor activity at 10 mg/kg,iv measured up to 60 mins by rotarod test; assay type: toxicity, organism-based; details: in vivo, 1 h
[26] = test system: Mus musculus; assay: Antinociceptive activity in iv dosed kunming mouse models of formalin-induced hyperalgesia assessed as reduction in pain response of paw licking measured up to 60 mins; assay type: functional, organism-based
[27] = test system: Mus musculus; assay: Antinociceptive activity in kunming mouse models assessed as maximum possible effect at 10 mg/kg, iv measured after 5 to 60 mins co-treated with naloxone by warm water tail-flick assay; assay type: functional, organism-based
[28] = test system: Mus musculus; assay: Antinociceptive activity in kunming mouse models of acetic-acid-induced writhing assessed as inhibition of writhing numbers at 3 mg/kg, iv pretreated for 5 mins followed by acetic-acid treatment and measured for 20 mins; assay type: functional, organism-based
[29] = Toxicity in kunming mouse assessed as reduction in number of fecal pellet at 1 to 10 mg/kg, iv after 1 hr; assay type: organism-based; details: in vivo
[30] = Toxicity in kunming mouse assessed as reduction in fecal dry weight at 1 to 10 mg/kg, iv after 1 hr; assay type: organism-based; details: in vivo

T1 sequence (P35372 whole entry): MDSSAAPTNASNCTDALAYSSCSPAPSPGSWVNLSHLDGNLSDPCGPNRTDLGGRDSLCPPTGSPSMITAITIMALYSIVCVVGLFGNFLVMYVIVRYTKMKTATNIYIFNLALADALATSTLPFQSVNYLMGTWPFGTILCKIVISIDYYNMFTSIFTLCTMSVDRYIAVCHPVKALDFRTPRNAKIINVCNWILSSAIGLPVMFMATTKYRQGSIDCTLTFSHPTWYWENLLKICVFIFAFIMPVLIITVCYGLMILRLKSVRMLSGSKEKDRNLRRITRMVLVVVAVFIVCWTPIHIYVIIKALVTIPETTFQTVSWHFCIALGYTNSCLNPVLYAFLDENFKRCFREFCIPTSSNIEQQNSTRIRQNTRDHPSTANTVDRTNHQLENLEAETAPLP
Sequence of Delta-type opioid receptor (P33533 whole entry): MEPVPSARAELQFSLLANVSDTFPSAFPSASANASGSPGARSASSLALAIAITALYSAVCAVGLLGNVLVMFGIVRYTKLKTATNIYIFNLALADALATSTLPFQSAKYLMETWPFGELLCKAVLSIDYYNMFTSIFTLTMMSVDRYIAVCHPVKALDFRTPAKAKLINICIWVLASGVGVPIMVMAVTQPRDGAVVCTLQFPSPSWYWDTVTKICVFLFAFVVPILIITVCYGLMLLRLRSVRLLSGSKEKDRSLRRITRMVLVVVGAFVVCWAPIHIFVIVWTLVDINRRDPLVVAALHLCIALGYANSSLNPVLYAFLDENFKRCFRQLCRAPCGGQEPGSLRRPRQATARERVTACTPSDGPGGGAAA
Sequence of Mu-type opioid receptor (Rattus norvegicus, UniProt P33535) (P33535 whole entry): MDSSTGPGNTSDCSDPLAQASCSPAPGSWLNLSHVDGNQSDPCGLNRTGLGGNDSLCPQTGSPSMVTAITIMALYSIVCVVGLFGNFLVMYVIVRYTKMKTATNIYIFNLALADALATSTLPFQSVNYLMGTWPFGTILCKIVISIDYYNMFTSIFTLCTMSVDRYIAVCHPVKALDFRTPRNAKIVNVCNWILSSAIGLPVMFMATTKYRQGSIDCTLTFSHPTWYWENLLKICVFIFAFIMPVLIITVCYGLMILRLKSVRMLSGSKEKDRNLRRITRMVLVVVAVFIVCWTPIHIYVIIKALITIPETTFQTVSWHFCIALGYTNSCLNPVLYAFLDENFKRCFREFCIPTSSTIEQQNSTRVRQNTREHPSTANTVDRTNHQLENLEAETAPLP

SMILES	Ki [1]	Ki [2]	EC50 [3]	Emax [4]	half-life [5]	half-life [6]	MPE [7]	ED50 [8]	Activity [9]	Activity [10]	Activity [11]	Activity [12]	Activity [13]	Activity [14]	Activity [15]	Activity [16]	Activity [17]	Activity [18]	Activity [19]	Activity [20]	other results
C=C(C(N)=O)[C@@H](NC(=O)[C@H](Cc1c[nH]c2ccccc12)NC(=O)[C@@H](CCCCN)NC(=O)[C@@H](N)Cc1ccc(O)cc1)c1ccco1	172 nM	> 10000 nM	1130 nM	65.8%																	
C=C(C(N)=O)[C@@H](NC(=O)[C@H](Cc1ccccc1)NC(=O)[C@@H](CCCNC(=N)N)NC(=O)[C@@H](N)Cc1ccc(O)cc1)c1ccco1	19.2 nM	922 nM	370 nM	74.2%	> 5 h	> 5 h	86.9%	0.054 nmol	100%												
C=C(C(N)=O)[C@@H](NC(=O)[C@H](Cc1c[nH]c2ccccc12)NC(=O)[C@@H](CCCNC(=N)N)NC(=O)[C@@H](N)Cc1ccc(O)cc1)c1ccco1	4.9 nM	955 nM	221 nM	62.7%	> 5 h	> 5 h	94.7%	0.025 nmol	100%	100%	Dose-dependent effect	100%	100%	100%	100%	100%	100%	100%	100%	100%	Activity [21]: 100%; Activity [22]: 100%
C=C(C(N)=O)[C@@H](NC(=O)[C@H](Cc1c[nH]c2ccccc12)NC(=O)[C@@H](CCCN)NC(=O)[C@@H](N)Cc1ccc(O)cc1)c1ccco1	437 nM	320 nM	89.3 nM	65.6%																	
C=C(C(N)=O)[C@@H](NC(=O)[C@H](Cc1c[nH]c2ccccc12)NC(=O)[C@@H](CN)NC(=O)[C@@H](N)Cc1ccc(O)cc1)c1ccco1	5.47 nM	> 10000 nM	192 nM	81.5%																	
C=C(C(N)=O)[C@@H](NC(=O)[C@H](Cc1c[nH]c2ccccc12)NC(=O)[C@@H](CCCCNC(=N)N)NC(=O)[C@@H](N)Cc1ccc(O)cc1)c1ccco1	405 nM	> 10000 nM	341 nM	76.5%																	
C=C(C(N)=O)[C@@H](NC(=O)[C@H](Cc1c[nH]c2ccccc12)NC(=O)[C@@H](CCCNC(N)=O)NC(=O)[C@@H](N)Cc1ccc(O)cc1)c1ccco1	5.82 nM	> 10000 nM	164 nM	78.9%	> 5 h	> 5 h	100%	0.037 nmol	100%	100%	Dose-dependent effect	100%	100%	100%	100%	100%	100%	100%	100%	100%	ED50 [23]: 2.59 nmol; MPE [24]: 51.2%; Activity [25]: Non-Toxic; Activity [26]: Dose-dependent effect; Activity [21]: 100%; Activity [22]: 100%; Activity [27]: inactive; Activity [28]: Active; Activity [29]: Toxic; Activity [30]: Toxic
C=C(C(N)=O)[C@@H](NC(=O)[C@H](Cc1ccccc1)NC(=O)[C@@H](CCCNC(N)=O)NC(=O)[C@@H](N)Cc1ccc(O)cc1)c1ccco1	8.72 nM	> 10000 nM	128 nM	76.7%	> 5 h	> 5 h	84%	0.043 nmol	100%	100%	Dose-dependent effect	100%	100%	100%	100%	100%	100%	100%	100%	100%	ED50 [23]: 3.84 nmol; MPE [24]: 34.8%; Activity [25]: Non-Toxic; Activity [26]: Dose-dependent effect; Activity [21]: 100%; Activity [22]: 100%; Activity [27]: inactive; Activity [28]: Active; Activity [29]: Toxic; Activity [30]: Toxic
